# In the supplement of paper PMC3974653:
# Structures can show the parent of a compound that is named as a salt.
# Tested on: MTT (mouse pheochromocytoma)
# Assay: IC50 of cell viability (ATP content)
# Conditions: (24 or 48 h)
# In short: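 Library compounds were tested at 8 final concentrations (0.5 nM to 46 µM) on MTT mouse pheochromocytoma cells for 24 or 48 hrs, with readout by CellTiter-Glo ATP luminescence. Signals were normalised with positive-control wells at 100% and DMSO wells at 0%. IC50 values were obtained by a four-parameter logistic fit.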
row,IC50 of cell viability,SMILES
1,> 46 µM,COc1nc(N)nc2c1ncn2C1OC(CO)C(O)C1O (stereo not given) [NELARABINE]
2,> 46 µM,CCCCNc1c(C(=O)OCC)c(C)nc2c1cnn2CC [Tracazolate hydrochloride]
3,> 46 µM,CCCCCCCCCCOCC(O)CN (stereo not given) [Decominol]
4,> 46 µM,OCCN1CC(O)C(O)C(O)C1CO (stereo not given) [MIGLITOL]
5,> 46 µM,[Na+].CCN1CCN(C(=O)NC(C(=O)NC2C3SC\C(=C(/N3C2=O)C([O-])=O)CSC4=NN=N[N]4C)C5=CC=C(O)C=C5)C(=O)C1=O (stereo not given) [CEFOPERAZONE SODIUM]
6,> 46 µM,O=C(NC[C@@H](O)CO)c1c(I)c(C(=O)NC[C@@H](O)CO)c(I)c(N(CCO)C(=O)CO)c1I [Ioversol]
7,> 46 µM,CC[C@@]1(O)CC2CN(CCC3=C([NH]C4=CC=CC=C34)[C@](C2)(C(=O)OC)C5=C(OC)C=C6N(C)C7[C@](O)([C@H](O)[C@]8(CC)\C=C/CN9CC[C@@]7([C@H]89)C6=C5)C(N)=O)C1 (stereo not given in full) [Vindesine Sulfate Salt]
8,> 46 µM,CC(/C=C/C=C(\C)C(=O)O[C@@H]1O[C@H](CO[C@@H]2O[C@H](CO)[C@@H](O)[C@H](O)[C@H]2O)[C@@H](O)[C@H](O)[C@H]1O)=C\C=C\C=C(C)\C=C\C=C(/C)C(=O)O[C@@H]1O[C@H](CO[C@@H]2O[C@H](CO)[C@@H](O)[C@H](O)[C@H]2O)[C@@H](O)[C@H](O)[C@H]1O [SAFFRON]
9,> 46 µM,O=C(O)CCNC(=O)c1ccc(/N=N/c2ccc(O)c(C(=O)O)c2)cc1 [BALSALAZIDE DISODIUM]
10,> 46 µM,CCOC(=O)Oc1c(OC)cc(C(=O)O[C@@H]2C[C@H]3CN4CCc5c([nH]c6cc(OC)ccc56)[C@@H]4C[C@@H]3[C@@H](C(=O)OC)[C@H]2OC)cc1OC [Syrosingopine]
11,> 46 µM,Cl.CN(C)C\1[C@@H]2C[C@H]3CC4=C(C(=CC=C4N(C)C)O)C(=O)\C3=C(O)\[C@]2(O)C(=O)\C(=C1O)C(N)=O (stereo not given in full) [MINOCYCLINE HYDROCHLORIDE]
12,> 46 µM,CCOC(=O)C(CCc1ccccc1)NC(C)C(=O)N1C(C(=O)O)CC2CCCCC21 (stereo not given) [TRANDOLAPRIL]
13,> 46 µM,O=C(O)[C@H]1CN(C/C=C/P(=O)(O)O)CCN1 [MIDAFOTELUM]
14,> 46 µM,CCCCCCC(O)C/C=C\CCCCCCCC(=O)O (stereo not given) [Ricinoleic acid]
15,> 46 µM,CC[N+](C)(CC)CCOC(=O)C1c2ccccc2Oc2ccccc21 [Methantheline bromide]
16,> 46 µM,CCCCC[C@H](O)/C=C\[C@@H]1[C@H](O)CC(=O)[C@@H]1CCCCCCC(=O)O [Alprostadil]
17,> 46 µM,[Na+].[Na+].CC1CC2C3CCC/4=C/C(=O)/C=C\[C@@]4(C)[C@]3(F)C(O)C[C@]2(C)[C@]1(O)C(=O)CO[P]([O-])([O-])=O (stereo not given in full) [DEXAMETHASONE SODIUM PHOSPHATE]
18,> 46 µM,CCOC(=O)[C@H](CCc1ccccc1)N[C@@H](C)C(=O)N1CCC[C@H]1C(=O)O [Enalaprila]
19,> 46 µM,C=CC1=C(C(=O)O)N2C(=O)[C@@H](NC(=O)C(N=O)c3csc(N)n3)[C@H]2SC1 (stereo not given in full) [Cefdinir]
20,> 46 µM,Cc1ccc(C)c(OCCCC(C)(C)C(=O)O)c1 [Gemfibrozil]
21,> 46 µM,CC1(C)[C@@H](O)CC[C@@]2(C)[C@H]1CC[C@]3(C)[C@@H]2C(=O)\C=C/4[C@@H]5C[C@](C)(CC[C@]5(C)CC[C@@]34C)C(O)=O [ENOXOLONE]
22,> 46 µM,N=C(N)NCCCCCCC(=O)NC(O)C(=O)NCCCCNCCCN (stereo not given) [Gusperimus trihydrochloride]
23,> 46 µM,COC/1=C(/N2[C@H](SC1)[C@H](NC(=O)C(N)C/3\C=C/C/C=C3)C2=O)C(O)=O (stereo not given in full) [Cefradoxil]
24,> 46 µM,CO/N=C(/C(=O)N[C@@H]1C(=O)N2C(C(=O)[O-])=C(C[n+]3ccn4ncccc43)CS[C@H]12)c1nsc(N)n1 [CEFOZOPRAN HYDROCHLORIDE]
25,> 46 µM,OC[C@@H](O)C(O[C@@H]1O[C@@H](CO)[C@H](O)[C@H](O)[C@H]1O)[C@H](O)[C@@H](O)CO (stereo not given in full) [Lactitol]
26,> 46 µM,OCc1cc(C(O)CNCCCCCCOCCCCc2ccccc2)ccc1O (stereo not given) [Salmeterol]

# More lines, now with the values behind:
row,SMILES,IC50 of cell viability
1,CC1CN(CCN1)C2=CC3=C(C=C2F)C(=O)\C(=C/N3C4=CC=C(F)C=C4F)C(O)=O (stereo not given) [Temafloxacin],> 46 µM
2,CCCN(CC)[C@@H](CC)C(=O)Nc1c(C)cccc1C [Etidocaine],> 46 µM
3,"O=C(O)CNC(=O)c1ccccc1I [IODOHIPPURATE SODIUM, I-123]",> 46 µM
4,N=C(NCCCCCCNC(=N)NC(=N)Nc1ccc(Cl)cc1)NC(=N)Nc1ccc(Cl)cc1 [Chlorhexidine],> 46 µM
5,FC(F)(F)COCC(F)(F)F [FLUROTYLUM],> 46 µM
6,CC1(CN2CCC(n3c(=O)[nH]c4ccccc43)CC2)OCc2ccccc2-n2cccc21 (stereo not given) [ZALDARIDUM],> 46 µM
7,Nc1nnc(-c2cccc(Cl)c2Cl)c(N)n1 [Lamotrigine],> 46 µM
8,CC[C@@H](CO)NC(=O)[C@H]\1CN(C)[C@@H]2CC3=C[N](C)C4=CC=CC(=C34)/C2=C1 [METHYSERGIDE],> 46 µM
9,CCCCC(CC)COC(=O)c1ccc(N(C)C)cc1 (stereo not given) [Padimate O],> 46 µM
10,O=C(O)c1cc(-c2ccccc2)nc2ccccc12 [CINCHOPHENUM],> 46 µM
11,CC(=O)[C@]1(O)CCC2C3/C=C(Cl)\C4=C\C(=O)C5CC5[C@@]4(C)C3CC[C@@]12C (stereo not given in full) [CYPROTERONE],> 46 µM
12,CN1CCN(C2=Nc3cc(F)ccc3Cc3ccccc32)CC1 [Fluperlapine],> 46 µM
13,CCCCOc1cc(C(=O)OCCN(CC)CC)ccc1N [Benoxinate hydrochloride],> 46 µM
14,C[NH+](C)CCC(c1ccccc1)c1cccc[nH+]1.O=C([O-])CC(=O)[O-] (stereo not given) [Pheniramine maleate],> 46 µM
15,CC[N+](CC)(CC(=O)Nc1c(C)cccc1C)Cc1ccccc1.O=C([O-])c1ccccc1,> 46 µM
16,C=CCCCCCCCCC(=O)O [Undecylenic acid],> 46 µM
17,CCCCC/C=C\C/C=C\C/C=C\C/C=C\CCCC(=O)NCC(=O)O [N-ARACHIDONYLGLYCINE],> 46 µM
18,CC/C=C\C/C=C\C/C=C\CCCCCCCC(=O)O [LINOLENIC ACID],> 46 µM
19,C\C1=C(\OC2=C(C=CC=C2C(=O)OCCN3CCCCC3)C1=O)C4=CC=CC=C4 [Flavoxate hydrochloride],> 46 µM
20,CCOC(=O)Nc1ccc(NCc2ccc(F)cc2)nc1N.O=C(O)/C=C\C(=O)O [Flupirtine maleate],> 46 µM
21,C[C@H]1COc2c(C3(N)CC3)c(F)cc3c(=O)c(C(=O)O)cn1c23 [PAZUFLOXACIN],> 46 µM
22,ClC1=CC=C2NC(=O)C\N=C(\C3=CC=CC=C3)C2=C1 [Desmethyldiazepam],> 46 µM

row,SMILES,IC50 of cell viability
1,COC(=O)c1c(Cl)c(Cl)c(C(=O)OC)c(Cl)c1Cl [Chlorthal-dimethyl],> 46 µM
2,CCc1nnc(N[S+](=O)([O-])c2ccc(N)cc2)s1 [Sulfaethidole],> 46 µM
3,Cc1ccc(O)c([C@H](CCN(C(C)C)C(C)C)c2ccccc2)c1 [Tolterodina],> 46 µM
4,CC1C(=O)C(=O)C=CN1C (stereo not given) [DEFERIPRONE],> 46 µM
5,O=C1NC(=O)C2C3C=CC(C3)C12 (stereo not given) [NOREXIMIDUM],> 46 µM
6,COc1cc2c(c(OC)c1OC)-c1c(cc3c(c1OC)OCO3)C[C@@H](C)[C@](C)(O)C2 [Gomisin A],> 46 µM
7,Cc1ncc[nH]1 [2-Methylimidazole],> 46 µM
8,O=C1Nc2ccc(Cl)cc2C(C#CC2CC2)(C(F)(F)F)O1 (stereo not given) [EFAVIRENZ],> 46 µM
9,COc1cc(C(=O)N2CCOCC2)cc(OC)c1OC [TRIMETOZINUM],> 46 µM
10,COC(=O)\C1=C(/C)N\C(=C(/C1C2=C(C=CC=C2)[N+]([O-])=O)C(=O)OC)C [NIFEDIPINE],> 46 µM
11,O=C(O)c1cccnc1 [NIACIN],> 46 µM
12,Nc1cc(C(Cl)=C(Cl)Cl)c([S+](N)(=O)[O-])cc1[S+](N)(=O)[O-] [Clorsulon],> 46 µM
13,Cc1ncc([N+](=O)[O-])n1C[C@H](O)CCl [Ornidazole],> 46 µM
14,c1ccc2c(c1)Nc1ccccc1S2 [Fenotiazina],> 46 µM
15,Nc1c(/N=N/c2ccc(-c3ccc(/N=N/c4cc(S(=O)(=O)[O-])c5ccccc5c4N)cc3)cc2)cc(S(=O)(=O)[O-])c2ccccc12 [CI DIRECT RED 28],> 46 µM
16,CCOC(=O)Nc1ccc2c(c1)N(C(=O)CCN1CCOCC1)c1ccccc1S2 [Moricizine hydrochloride],> 46 µM
17,COC1=CC=C2CN(C)CC[C@@]34\C=C/[C@H](O)C[C@@H]3OC1=C24 [GALANTHAMINE],> 46 µM
18,"CCCCCCCCCCCCCCCC(=O)OC(C)C [Hexadecanoic acid, 1-methylethyl ester]",> 46 µM
19,Cc1c[nH]c2ccccc12 [SKATOLUM],> 46 µM
20,CCCSc1cc(OC)c(CCN)cc1OC,> 46 µM
21,CCN(Cc1ccc(Cl)nc1)/C(=C/[N+](=O)[O-])NC [NITENPYRAM],> 46 µM
22,CCN(CC)CCNC(=O)c1ccc(NC(C)=O)cc1.Cl [ACECAINIDE HYDROCHLORIDE],> 46 µM
